Reference: US20030114498A1, “Remedies for malignant tumor-concomitant neurosis and azoor or analogous diseases thereof” (priority 2002, published 2003)
“Also recorded” adds a separate entry of the source.

Assays:
AZOOR [1] = experiment: Clinical case: therapeutic effect on AZOOR, static visual field examination (Humphrey visual field analyzer); assay type: in vivo, human patient; details: person
Description: Example of Clinical Trial (Therapeutic Effect on AZOOR)
The patient became aware of dark and blurred vision in the center of their visual field on Sep. 1, 1999, and visited Ohyachi Kyoritsu Eye Clinic on September 4 in the same year. […] ERG was subnormal and normal for the right and left eyes, respectively. […] FAG detected mild leakage of fluorescein from the optic disc of the right eye. In view of these observations, optic nerve disorder was suspected and the patient was made to visit a brain surgeon in the neighborhood to receive CT and MRT examinations. However, no abnormality was found. […] To treat the eye symptom, the clinic prescribed oral medications such as drug for ameliorating circulation for a while, but no improvement of visual field was observed. Thus, on Oct. 1, 1999, the patient was referred to the Department of ophthalmology at Sapporo Medical University, School of Medicine for close examination.
Visual acuity was Vd=1.2 and Vs=1.2. Although pupils were round and equal in size, the right eye was RAPD(+) but no oculomotor abnormalities were observed. […] In the static visual field examination, reduction of the sensitivity in the central visual field was observed.
Oral administration of prednisolone (40 mg/day) was started on Oct. 1, 1999. The patient became aware of dark and blurred vision also in the center of the visual field of their left eye on Oct. 20, 1999. […]

AZOOR [2] = details: reported case, administration for two weeks; cited from earlier work
[3] = launched ten years ago; cited from earlier work
apoptosis caused by CAR = experiment: Therapeutic effect on cancer-associated neuropathy: ERG in rats given anti-recoverin and anti-hsp70 antibodies into the vitreous body; assay type: in vivo, Lewis rats; details: nilvadipine 3.2 mg/kg/day peritoneal for two weeks with antibody infusion into vitreous body; follow-up five weeks; 24 h light; FIG. 1
Protocol: Example of Experiment (Therapeutic Effect on Cancer-Associated Neuropathy)
Test animal: Lewis rats (8 weeks of age) Treatment group 5 animals (10 eyes) Control group 5 animals (10 eyes)
Photoenvironment: Apoptosis (cell death) was induced under light for 24 hours.
Test drugs: Nilvadipine (3.2 mg/kg/day) by peritoneal administration (dissolving solution) polyethylene glycol 400: ethanol:water=1:1:2 Predonine (0.6 μg/kg/day) by intramuscular injection (dissolving solution) PBS (phosphate buffer solution) Cyclosporine A (10 mg/kg/day) by intramuscular injection (dissolving solution) olive oil
Antibodies: anti-recoverin antibody (5 μl/eye) anti-hsp70 antibody (5 μl/eye)
Test drugs were administered for two weeks along with infusion of antibodies into vitreous body of the eye.
Follow-up observation was performed for five weeks after the start of administration. PBS alone was administered to the control group.
In FIG. 1, the vertical axis represents ERG (electroretinogram) amplitude, and the horizontal axis is the lapse of time in weeks. Δ: nilvadipine group; □: predonine group; ⋄: cyclosporin A group; and ◯: control group.

Question: Which “visual field defect under oral prednisolone” value (AZOOR [1]; oral prednisolone 40 mg/day reduced to 10 mg/day, FIGS. 2 and 3) does the source give for `C[C@]12C=CC(=O)C=C1CC[C@@H]1[C@@H]2[C@@H](O)C[C@@]2(C)[C@H]1CC[C@]2(O)C(=O)CO` [prednisolone] here?
Answer: no amelioration of the visual field defect; also recorded: could not improve the visual field

Question: With `Nc1nc2c(ncn2COCCO)c(=O)[nH]1` [aciclovir] as the molecule, how does the “progress of visual field defect in the other eye” value (AZOOR [2]) read?
Answer: stopped

Question: With `COC(=O)C1=C(C#N)NC(C)=C(C(=O)OC(C)C)C1c1cccc([N+](=O)[O-])c1` (centres unmarked) [nilvadipine, isopropyl 6-cyano-5-methoxycarbonyl-2-methyl-4-(3-nitrophenyl)-1,4-di hydropyridine-3-carboxylate ester] as the molecule, how does the side effects [3] read?
Answer: no noteworthy serious side effects

Question: What about the “static visual field / visual sensitivity after nilvadipine” value (AZOOR [1]; two months after start of oral nilvadipine (Depo-Medrol sub-Tenon's injection three days earlier), FIGS. 4 and 5) of the same molecule?
Answer: remarkable improvement of visual sensitivity

Question: What about the “ERG (electroretinogram) amplitude, effectiveness compared with the other test drugs” value (apoptosis caused by CAR) of the same molecule?
Answer: more effective than predonine and cyclosporin A
